Here are results for 6 compounds from publication PMC5972026 (Journal of medicinal chemistry, 2017).

Entries after “also recorded” stand apart in the source; their conditions may differ. Where a name gives a salt, the structure may show the parent alone. Where only a bound is given, the exact number is not on record here.

What is called inhibition is the change of the read-out against control, counted positive when it falls.

The target in series [1] is A/M2 wt channel (A/Udorn/72) (Influenza A virus, UniProt P0DOF5). Briefly: cell-based. Format: cell-based.
For series [2], the system named is A/HK/7/87 virus (H3N2 subtype), wt M2. Format: cell-based, influenza A virus.
The test system is the same in series [3]. Format: cell-based, influenza A virus. This is another data set of the same source.
The subject of another series is MDCK cells. The note with it: 100 μM.

Chain of A/M2 wt channel (A/Udorn/72) (P0DOF5 whole entry, looked up): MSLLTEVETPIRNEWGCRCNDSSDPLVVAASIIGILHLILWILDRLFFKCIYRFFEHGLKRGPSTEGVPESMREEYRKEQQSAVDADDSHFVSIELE

Consider `C1CC(C23CC4CC(CC(C4)C2)C3)CCN1` [Compound 2, 4-(1-adamantyl)piperidine hydrochloride], for which, in series [1], the “Binding behaviour” value is “strong binder” and the “Reversibility of inhibition” value was “essentially irreversible”. Besides, the “Antiviral activity in the PRA” value in series [2] was “active”. The “Antiviral activity confirmed in virus yield assay” value in series [3] is recorded as “confirmed”.

Take `N=C(N)N1CCC(C23CC4CC(CC(C4)C2)C3)CC1` [Compound 7, N-amidyl-4-(1-adamantyl)piperidine hydrochloride]: in series [1], the “Binding behaviour” value is “weak binding affinity; also recorded: fast and weak binder”; the “Time after which compound dissociated from the channel” value is reported as 5 min. In addition, in series [2], the “Antiviral activity in the PRA” value is listed as “did not display antiviral activity”.

Take `C1CCC(C23CC4CC(CC(C4)C2)C3)NC1` (stereo not drawn) [Compound 8, 2-(1-adamantyl)piperidine hydrochloride]: the “Cytotoxicity at highest concentration tested” value with MDCK cells is given as “devoid of cytotoxicity”. In series [1], the “Binding behaviour” value was “strong binders; also recorded: very slow but strong binding” and the “Reversibility of inhibition” value is listed as “essentially irreversible”. Also, in series [1] (read-out: Inhibition after 6 min of treatment, 100 μM, 6 min), the inhibition at 100 µM was greater than 90%. Further, the “Antiviral activity in the PRA” value in series [2] is given as “active”. In addition, in series [3], the “Antiviral activity confirmed in virus yield assay” value is “confirmed”.

For the compound `Cl.OC1(CC2CCNCC2)C2CC3CC(C2)CC1C3` (stereo not drawn) [Compound 15, 2-(piperidin-4-ylmethyl)adamantan-2-ol hydrochloride], the “Antiviral activity in the PRA” value in series [2] is given as “active”.

On to `N=C(N)N1CCC(C=C2C3CC4CC(C3)CC2C4)CC1` [Compound 19, 4-[(adamantan-2-ylidene)methyl]piperidine-1-carboximidamide hydrochloride], for which, in series [1], the “Binding behaviour” value is recorded as “weak binding affinity”. Further, the “Antiviral activity in the PRA” value in series [2] is recorded as “did not display antiviral activity”.

With `N=C(N)N1CCC(CC2C3CC4CC(C3)CC2C4)CC1` (stereo not drawn) [Compound 20, 4-[(adamantan-2-yl)methyl]piperidine-1-carboximidamide hydrochloride], the “Binding behaviour” value in series [1] is on record as “weak binding affinity”. Besides, the “Antiviral activity in the PRA” value in series [2] is listed as “did not display antiviral activity”.
